The source of these data is patent publication US20060083680A1, “Diphenyl ether derivatives and their use for imaging serotonin transporters” (The Trustees of the University of Pennsylvania, priority 2004, published 2006).

Data set [1] has as its target T1, SERT binding sites (Rattus norvegicus, UniProt P31652).
T1 construct: from tissue; host or cells: rat brain in vivo (hypothalamus, cortex, striatum, hippocampus, cerebellum); ex vivo brain sections
As to the kind of experiment: In vivo competitive binding / blocking of [^125I]4 regional uptake. Conditions: rats, drug 2 mg/kg i.v. 5 min prior to tracer, 120 min after [^125I]4. The text has this:
The reduction of regional specific binding in the drug-pretreated rats was compared to the control animals with saline pretreatment.

Data set [2] deals with T2, SERT (serotonin transporter) (Rattus norvegicus, UniProt P31652).
T2 construct: membrane homogenates
The experiment in a line: In vitro binding assay, membranes of LLC-PK1 cells expressing SERT, [^125I]IDAM. As for the experimental part:
(§1) Preparation of membrane homogenates: LLC-PK1 cells from pig kidney permanently expressing DAT, NET and SERT, respectively (LLC-DAT, LLC-NET and LLC-SERT) were kindly provided by Dr. G. Rudnick at Yale University. These cells were grown to confluence as a monolayer on 15 cm petri dish as reported previously. […] Cells were then washed once with phosphate buffer saline (w/ Ca^2+ and Mg^2+) (Bio-Whittaker) and harvested with 10 mL PBS by scraping. The cell suspensions were homogenized on ice for 20 strokes and centrifuged at 17,000 rpm for 20 min at 4° C. The pellets were re-suspended in PBS, frozen quickly in liquid N2 and stored in a −70° C. freezer.
(§2) Binding assays: Binding assays were performed in a final volume of 0.2 mL. […] Incubation was carried out for one h at room temperature and the bound ligand was collected on glass fiber filters (Schleicher & Schuell No. 25, Keene, N.H.) presoaked with 1% polyethylenimine (Sigma, St. Louis, Mo.) and counted in a gamma counter (Packard 5000). Results of competition experiments were subjected to nonlinear regression analysis using EBDA (Elsevier-BIOSOFT, Cambridge, UK).

In data set [3] the target is T3, DAT (dopamine transporter) (Rattus norvegicus, UniProt P23977).
T3 construct: membrane homogenates
The experiment in a line: In vitro binding assay, membranes of LLC-PK1 cells expressing DAT, [^125I]IPT. As for the experimental part:
as §1, §2

Data set [4] addresses T4, NET (norepinephrine transporter) (Homo sapiens, UniProt P23975).
T4 construct: membrane homogenates
The experiment in a line: In vitro binding assay, membranes of LLC-PK1 cells expressing NET, [^125I]IPT. As to the method: as §1, §2

Data set [5] can be described thus: Partition coefficient 1-octanol/buffer. Conditions: 1-octanol/buffer pH 7.4, 0.1 M phosphate. The format is physicochemical. As for the experimental part:
The test tube was vortexed for 3 min at room temperature, then centrifuged for 5 min. Two weighed samples (2 g each) from the 1-octanol and buffer layers were counted in a well counter. The partition coefficient was determined by calculating the ratio of cpm/g of 1-octanol to that of buffer. Samples from the 1-octanol layer were re-partitioned until consistent partition coefficient values were obtained. The measurement was repeated 3 times.

Data set [6] is described as follows: Biodistribution in rats after iv injection (organs). The format is in vivo. As to the method:
Biodistribution in rats: Three rats per group were used for each biodistribution study. While under ether anesthesia, 0.2 mL of a saline solution containing 10 μCi of radioactive tracer was injected into the femoral vein. The rats were sacrificed at the time indicated by cardiac excision while under ether anesthesia. Organs of interest were removed and weighed, and the radioactivity was counted. The percent dose per organ was calculated by a comparison of the tissue counts to counts of 1% of the initial dose (100 times diluted aliquots of the injected material) measured at the same time.

For data set [7], the target named is T5, serotonin transporters (Rattus norvegicus, UniProt P31652).
T5 construct: from tissue; host or cells: rat brain in vivo (hypothalamus, cortex, striatum, hippocampus, cerebellum); ex vivo brain sections
As to the kind of experiment: Regional brain distribution and specific binding ratio in rats. Type of data set: in vivo. As for the experimental part:
Regional brain distribution in rats was measured after an i.v. injection of the radioactive tracer. Samples from different brain regions: cortex (frontal plus occipital), striatum, hippocampus, cerebellum and hypothalamus were dissected, weighed and counted. The percentage dose/g of each sample was calculated by comparing sample counts with the counts of the diluted initial dose described above. The specific binding ratio in each region was obtained by dividing the % dose/gram values between region by that in the cerebellum ([region-cerebellum/cerebellum]). The cerebellum region containing little or no serotonin transporters was used as the background region.

A short description of data set [8]: Stability of the radioactive material.
For data set [9], the target named is T1, SERT binding sites. The experiment in a line: Ex vivo autoradiography of rat brain sections. The format is in vivo, rats. The conditions noted are these: rat, 2 mg/Kg 5 min prior to [^125I]4.
The mark [10] stands for this setting: LLC-PK1 cells expressing SERT, read-out: Ki SERT.

Where “and” joins values, the source holds several entries; their conditions need not be identical. Equal entries are not always repeated. Entries after “also recorded” stand apart in the source; their conditions may differ. Where two headings read alike, the source gives them in different places.

T1 sequence (P31652 whole entry): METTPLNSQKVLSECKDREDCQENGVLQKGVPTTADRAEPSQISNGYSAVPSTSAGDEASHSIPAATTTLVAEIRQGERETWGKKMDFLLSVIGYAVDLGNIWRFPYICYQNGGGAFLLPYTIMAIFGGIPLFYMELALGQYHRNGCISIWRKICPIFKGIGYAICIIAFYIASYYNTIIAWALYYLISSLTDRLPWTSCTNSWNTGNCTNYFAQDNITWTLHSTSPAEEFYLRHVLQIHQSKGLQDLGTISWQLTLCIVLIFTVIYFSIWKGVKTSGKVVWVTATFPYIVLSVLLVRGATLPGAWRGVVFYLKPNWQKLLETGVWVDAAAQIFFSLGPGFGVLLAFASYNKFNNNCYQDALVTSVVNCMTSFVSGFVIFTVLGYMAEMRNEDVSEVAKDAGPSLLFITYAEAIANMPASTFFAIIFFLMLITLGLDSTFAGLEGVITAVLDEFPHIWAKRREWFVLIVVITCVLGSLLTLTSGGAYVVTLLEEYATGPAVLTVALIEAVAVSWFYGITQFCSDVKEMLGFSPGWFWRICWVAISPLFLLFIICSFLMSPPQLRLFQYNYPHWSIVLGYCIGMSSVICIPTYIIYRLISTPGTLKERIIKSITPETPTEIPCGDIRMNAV
T2 sequence (P31652 whole entry): as above
T5 sequence (P31652 whole entry): as above
T3 sequence (P23977 whole entry): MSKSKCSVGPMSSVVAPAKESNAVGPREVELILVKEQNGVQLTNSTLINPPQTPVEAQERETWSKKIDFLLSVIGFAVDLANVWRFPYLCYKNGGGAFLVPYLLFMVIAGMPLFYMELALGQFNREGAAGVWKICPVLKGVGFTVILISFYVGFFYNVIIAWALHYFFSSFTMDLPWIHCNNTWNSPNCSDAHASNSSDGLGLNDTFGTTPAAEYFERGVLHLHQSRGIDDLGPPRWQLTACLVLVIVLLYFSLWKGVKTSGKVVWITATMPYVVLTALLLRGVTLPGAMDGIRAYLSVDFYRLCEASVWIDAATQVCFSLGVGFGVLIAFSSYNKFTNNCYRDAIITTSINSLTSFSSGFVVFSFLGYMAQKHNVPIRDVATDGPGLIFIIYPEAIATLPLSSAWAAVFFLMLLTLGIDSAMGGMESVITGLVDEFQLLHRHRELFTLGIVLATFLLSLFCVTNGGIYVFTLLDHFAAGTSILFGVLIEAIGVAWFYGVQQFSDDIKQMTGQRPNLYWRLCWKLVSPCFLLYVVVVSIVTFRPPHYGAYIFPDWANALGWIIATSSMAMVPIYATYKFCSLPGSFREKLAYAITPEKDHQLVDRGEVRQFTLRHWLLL
T4 sequence (P23975 whole entry): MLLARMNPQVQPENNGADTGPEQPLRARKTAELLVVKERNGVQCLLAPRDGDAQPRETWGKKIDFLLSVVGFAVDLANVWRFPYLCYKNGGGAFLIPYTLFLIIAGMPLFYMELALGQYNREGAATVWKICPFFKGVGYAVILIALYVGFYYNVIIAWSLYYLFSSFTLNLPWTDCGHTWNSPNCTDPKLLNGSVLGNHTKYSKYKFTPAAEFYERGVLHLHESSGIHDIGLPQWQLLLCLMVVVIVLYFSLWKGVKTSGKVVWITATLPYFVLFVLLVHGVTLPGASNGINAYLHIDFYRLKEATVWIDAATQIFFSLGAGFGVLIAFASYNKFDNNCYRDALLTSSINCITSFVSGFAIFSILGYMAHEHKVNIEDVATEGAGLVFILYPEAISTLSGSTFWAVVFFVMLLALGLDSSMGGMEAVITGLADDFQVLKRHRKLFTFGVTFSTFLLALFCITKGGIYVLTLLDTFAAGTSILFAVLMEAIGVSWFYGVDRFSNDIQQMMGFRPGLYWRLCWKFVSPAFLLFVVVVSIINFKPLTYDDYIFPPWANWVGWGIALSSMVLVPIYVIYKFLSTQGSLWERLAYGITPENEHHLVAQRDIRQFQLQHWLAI

As for `O=C(c1ccc(F)cc1)C1CCN(CCn2c(=O)[nH]c3ccccc3c2=O)CC1` [ketanserin], the “effect of pretreatment on specific binding/uptake of [^125I]4 in hypothalamus” value in [1] was “did not show any significant effect”.

For `CN(C)Cc1ccccc1Oc1ccc(I)cc1N` [Compound 4, 2-(2-(Dimethylaminomethyl)phenoxy)-5-iodophenylamine], the Ki (as a rule, the equilibrium dissociation constant of an inhibitor or competing ligand from its target) was determined as 0.37 ± 0.11 nM in data set [2], 309 ± 65 nM in data set [3] and 286 ± 36 nM in data set [4]. In data set [2], the “selectivity for SERT over NET and DAT” value is “more than 500 fold”. The compound further registered a Partition coefficient in data set [5] of 418. Besides, the “increase in brain uptake vs ADAM (3)” value in [6] (2 and 4 h after i.v. injection) is recorded as “two to three-fold increase”. For the same compound, the brain uptake is 1.08 % dose/brain in data set [6] (2 h after i.v. injection) and 0.33 % dose/brain in data set [6] (4 h after i.v. injection). Moreover, the “hypothalamus uptake compared to other radioiodinated compounds” value in [7] (60-240 min post i.v. injection) is given as “highest hypothalamus uptake among all of the radioiodinated compounds”. In addition, the “higher uptake in hypothalamus than ADAM (3)” value in data set [7] (between 2 and 4 h) was “more than 200%”. In addition, the “Regional brain distribution HY (hypothalamus)” value in data set [7] (iv, 120 min) turned out to be 0.92 % dose/g; in [7] (iv, 240 min), 0.32 % dose/g.

`CN(C)Cc1ccccc1Oc1ccc([125I])cc1N` [[^123I]4, [^125I][^123I]2-(2-(Dimethylaminomethyl)phenoxy)-5-iodophenylamine]: the stability after labeling in data set [8] (after labeling) turned out to be 24 h.

`CN(C)Cc1ccccc1Sc1ccc(I)cc1CO` [Compound 1, reference compound]: the Ki in [2] (setting [10]) was 0.097 ± 0.013 nM; in data set [3], over 1000 nM; in data set [4], 234 ± 26 nM.

As to `CN(C)Cc1ccccc1Oc1ccc(I)cc1CO` [Compound 2, reference compound], the Ki was over 1000 nM in data set [3] and 20 ± 2 nM in data set [4].

Take `COC(=O)C(c1ccccc1)C1CCCCN1` (stereo not drawn) [methylphenidate]: the “effect of pretreatment on specific binding/uptake of [^125I]4 in hypothalamus” value in [1] is reported as “did not show any significant effect”.

`CN(C)Cc1ccccc1Sc1ccc([125I])cc1N` [[^125I]ADAM (3), reference compound] showed a Partition coefficient in data set [5] of 335.

Regarding `CN(C)Cc1ccccc1Sc1ccc(C#N)cc1N` [DASB, reference compound], the figures for the Ki in [2] (setting [10]) and in [3] were 1.1 ± 0.04 nM and over 1000 nM, respectively.

Consider `CN(C)Cc1ccccc1Cc1ccc([125I])cc1N` [[^125I]5, 2-(2-(Dimethylaminomethyl)benzyl)-5-[^125I]iodophenylamine], for which, in [5], the Partition coefficient is recorded as 1,730. In addition, the brain uptake in data set [6] (2 min post-injection) was 1.77 % dose and 1.77±0.049 % dose. In data set [7] (iv, 120 min), the “Ratio of (Region-Cerebellum)/Cerebellum, HY” value is 2.43. In data set [8] (refrigerator), the “stability in a refrigerator” value is reported as “stable in a refrigerator at least for three weeks”.

On to `CSc1ccc([C@@H]2CN3CCC[C@@H]3c3ccccc32)cc1` [(+)McN5652], for which the “effect of pretreatment on specific binding/uptake of [^125I]4 in hypothalamus” value in [1] is recorded as “completely eliminated the specific binding; also recorded: significantly blocked”. In addition, the “effect of pretreatment on specific uptake of [^125I]4 in brain regions (autoradiography)” value in data set [9] is “totally eliminated”.

For `CCN1CCC[C@H]1CNC(=O)c1c(O)c(Cl)cc(Cl)c1OC` [raclopride], the “effect of pretreatment on specific binding/uptake of [^125I]4 in hypothalamus” value in data set [1] is on record as “did not show any significant effect”.

On to `CN(C)Cc1ccccc1Cc1ccc(I)cc1N` [Compound 5, 2-(2-(dimethylaminomethyl)benzyl)-5-iodophenylamine], for which the results for the Ki in data set [2] (setting [10]), in data set [3] and in data set [4] were 48.6 ± 4.1 nM, over 1000 nM and 17 ± 4 nM, respectively.
